Experimental data: patent US20220010300A1, “METHODS OF TREATING NEURODEGENERATIVE DISORDERS AND IDENTIFYING TARGETS THEREFORE” (The Board of Trustees of the Leland Stanford Junior …, priority 2019, published 2022)

Tests used:
[1] = tested on: BV-2 cells; experiment: Iodo-BODIPY irradiation assay with Calcein AM live cell staining; format: cell-based, mouse; conditions: LPS 5 μg/ml for 18 hours, 3.8 μM iodo-BODIPY for 30 min, green LED irradiation for 3 hours
Description: BV-2 cells were treated for 18 hours with 5 μg/ml LPS in DMEM with 5% FBS to induce lipid droplet formation. Controls received vehicle solution (PBS) only. Cells were washed twice in PBS and incubated in 3.8 μM iodo-BODIPY (see FIG. 8, Panel A; iodo-BODIPY was kindly provided by Prof. Carolyn Bertozzi, Chemistry department, Stanford University) in PBS for 30 min in the incubator (5% CO2, 37° C.). Cells were washed twice in PBS and then irradiated under visible light (green LED; 9 W, 150 mA, 2000 lux) for 3 hours at RT. Non-irradiated cells were kept at RT for 3 hours without irradiation.
To assess cell viability after photoirradiation, irradiated and non-irradiated BV-2 cells were stained with 1 μM Calcein AM (Invitrogen) in PBS for 15 min at 37° C. Cells were then examined by fluorescence microscopy (Keyence Corp., Osaka, Japan) and the percentage of green, Calcein^+BV-2 cells (live cells) of total methyl-di-iodo BODIPY^+ cells (red, lipid droplet containing cells) was calculated.

[2] = tested on: BV-2 cells; experiment: BODIPY fluorescence of BV-2 cells by flow cytometry; format: cell-based, mouse
Description: (§1) To induce lipid droplet formation, subconfluent BV-2 cells were treated for 18 hours with 5 μg/ml LPS (Lipopolysaccharide from E. coli, Sigma) in DMEM+5% FBS. Controls received vehicle solution (PBS) only. To inhibit lipid droplet formation, BV-2 cells were pre-treated with 1 μM Triacsin C (Cayman Chemical) or vehicle (saline) in DMEM+5% FBS. 30 min after adding Triacsin C, LPS or LPS-vehicle solution were added and cells were co-treated with Triacsin C and LPS for 18 hours.

[3] = tested on: BV-2 cells; experiment: BODIPY in vitro staining of BV-2 cells (confocal counting of BODIPY+ cells); format: cell-based, mouse
Description: as §1
BV-2 cells were seeded at 5×10^4 cells on poly-L-lysine coated glass coverslips in DMEM+5% FBS. Following specific treatments, cells were fixed in 4% PFA for 30 min, washed 3× in PBS and incubated in PBS with BODIPY™ 493/503 (1:1000 from 1 mg/ml stock solution in DMSO; ThermoFisher) and Hoechst 33342 (1:2000, ThermoFisher) for 10 min at RT. Sections were washed twice in PBS and mounted on microscope slides with Vectashield (H-1000, Vector Laboratories). Four randomly selected visual fields per coverslip were photographed (40× magnification) using a confocal scanning laser microscope (LSM 700, Zeiss) with LSM software (ZEN 2011). To analyze the percentage of lipid droplet-containing BV-2 cells, numbers of total Hoechst^+ cells and of Hoechst^+ cells with BODIPY^+ lipid droplets were counted and the percentage of BODIPY^+BV-2 cells was calculated.

[4] = tested on: microglia in the hippocampus; experiment: LPS injections in young mice, BODIPY/Iba1 staining of the hippocampus; format: in vivo, mouse; conditions: 3-month-old mice, i.p. 1 mg LPS/kg BW once daily for four days, compared with vehicle treated controls
Description: 3-month-old wild type mice were injected with LPS (Lipopolysaccharide from E. coli, Sigma), i.p. 1 mg LPS/kg body weight once daily for four consecutive days. Control mice were injected with body weight corresponding volumes of PBS. 24 hours after the last LPS injection mice were euthanized, brains were extracted and brain tissue was processed for immunohistochemistry staining (see Perfusion and tissue processing and Immunohistochemistry and BODIPY staining).
Mice were anesthetized using Avertin (Tribromoethanol) and transcardially perfused with 0.9% NaCl solution. Brains were extracted, fixed in 4% paraformaldehyde for 48 hours, cryoprotected in 30% sucrose and then sectioned sagitally or coronally ([…]) using a freezing microtome (Leica). […]
For quantification of BODIPY^+ microglia, of CD68^hi microglia, of BODIPY^+ lipid droplet numbers and of lipid droplet size, analyses were performed blinded on coded slides. […]
To analyze the percentage of lipid droplet-containing microglia, numbers of total TMEM119^+ or lba1^+ cells and of TMEM119+BODIPY^+ or lba1+BODIPY^+ cells were counted and the percentage of BODIPY^+ microglia was calculated. To assess the percentage of CD68^hi cells, BODIPY^−lba1^+ and BODIPY^+lba1^+ cells with clearly visible CD68 immunoreactive particles were counted and normalized to total BODIPY^−lba1^+ and BODIPY^+lba1^+ cells.

[5] = tested on: hippocampal LD-low and LD-high microglia; experiment: Cytokine assay on acutely isolated primary microglia (multiplex array); format: cell-based, mouse; conditions: aged mice, 100 ng/ml LPS for 8 hours; IL-10, CCL3, CCL4, IL-6, CCL5, TNF-α, IL-1β, IL-1α, CXCL1, CXCL10
Description: Primary microglia from hippocampi of 3-month (young) and 20-month-old (aged) wild type mice were isolated as described above (see Microglia Isolation, hippocampi from 3 mice were pooled per age group). CD11b^+CD45^lo primary microglia from young mice, and CD11b^+CD45^lo primary microglia sorted for BODIPY^lo and BODIPY^hi cells from aged mice were sorted into 5% FBS-containing microglial culture medium (DMEM/F12, 1% Pen/Strep; 2 mM glutamine; 5 ug/mL N-acetyl cysteine; 5 ug/mL insulin; 100 ug/mL apo-transferrin; 100 ng/mL sodium selenite; 2 ng/mL human TGF-2; 100 ng/mL murine IL-34; 1.5 ug/mL ovine wool cholesterol; 10 ug/mL heparin sulfate)s. Cells were seeded into 96 well plates at 5000 cells per well in 100 μl microglia culture medium with 5% FBS and incubated for 30 min in the incubator (37° C., 5% CO2). Next, cells were treated with 100 ng/ml LPS or PBS for 8 hours, and supernatant was collected and secreted signaling proteins were measured in culture supernatants using the ‘Mouse Cytokine/Chemokine Array 31-Plex’ from Eve Technologies (Canada).

[6] = tested on: BV-2 cells; experiment: ROS assay (CellROX fluorescence, microscopy and flow cytometry); format: cell-based, mouse
Description: To measure ROS in BV-2 cells, cells were split into 24 well plates at 5×10^4 cells per well in DMEM+5% FBS and treated with LPS, Triacsin C and vehicle solutions for 18 hours. Next, cells were incubated in DMEM+5% FBS with CellROX™ Orange (1:500, Invitrogen) for 30 min at 37° C., washed twice in PBS, and CellROX™ Orange Intensity was examined by fluorescence microscopy (Keyence Corp., Osaka, Japan). Following microscopic analysis, cells were detached using TripLE, transferred to FACS tubes and CellROX™ Orange intensity was analyzed on BD AccuriC6 flow cytometer.

[7] = tested on: BV-2 cells; experiment: In vitro phagocytosis assay (pHrodo red Zymosan uptake); format: cell-based, mouse
Description: as §1
For in vitro phagocytosis assays, BV-2 cells were split into 96 well plates at 1000 cells per well in DMEM+5% FBS and treated with LPS, Triacsin C and vehicle solutions for 18 hours. Following specific treatments, 5 ng pHRodo Red Zymosan™ Bioparticles (Thermo Fisher Scientific P35364) in 100 μl DMEM+5% FBS were added per well. Four phase contrast and red fluorescent images per well were acquired every 2 hours for 16 hours using the Incucyte S3 live cell analysis system (Essen Bioscience). For each time point, phagocytosis was calculated by normalizing red fluorescent area to phase confluence.

[8] = 1 μM Triacsin C co-treated with LPS (5 μg/ml) for 18 hours

## iodo-BODIPY [iBP]
[1]
  cell killing after photoirradiation of iBP+ BV-2 cells (Calcein live cell imaging): selectively killed lipid-droplet rich cells

## Lipopolysaccharide from E. coli [LPS]
[2]; 5 μg/ml LPS for 18 hours
  BODIPY+ fluorescence by flow cytometry: significantly increased
[3]; 5 μg/ml LPS for 18 hours, compared with control BV-2 cells
  increase of lipid droplet containing BODIPY+ BV-2 cells: 5 fold
[4]
  increase in lipid droplet containing microglia (BODIPY+Iba1+) in the hippocampus: twofold increase
[5]
  cytokine release of LD-high microglia compared to LD-low microglia upon LPS treatment: strongly exaggerated release of multiple cytokines
[6]; 5 μg/ml LPS for 18 hours
  ROS generation (CellROX fluorescence) in BV-2 cells: induced elevated ROS generation
[7]; 5 μg/ml LPS for 18 hours
  phagocytosis (pHrodo red Zymosan uptake) in BV-2 cells: significantly increased phagocytosis

## CCC/C=C/C/C=C/C=C/C=N/NN=O [Triacsin C]
[2]; [8]
  effect on BODIPY+ signal in LPS-stimulated BV-2 cells by flow cytometry: inhibited an increase
[3]; [8]
  effect on LPS-induced increase in BODIPY+ cells: abolished the LPS-induced increase
[6]; [8]
  ROS levels (CellROX fluorescence) in LPS-treated cells: significantly reduce ROS levels
[7]; [8]
  pHrodo red Zymosan phagocytosis in LPS-treated cells: increased Zymosan phagocytosis
